Reference: patent US20230399358A1, “IMMUNOGLOBULIN PURIFICATION PEPTIDES AND THEIR USE” (North Carolina State University, priority 2019, published 2023)
“Also recorded” adds a separate entry of the source. Like-named read-outs stand apart in the source and are kept apart here. No end group written: not given here.

Tests used:
[1] = test system: human polyclonal IgG in CHO cell culture fluid; assay: Chromatographic purification of IgG from CHO cell culture fluid on WorkBeads resin, SDS-PAGE densitometry; conditions: FIG. 8, reduced ligand density 35.2 milliequivalents/mL
Protocol: Purification of IgG from CHO Cell culture fluids using MWRGWQC (SEQ ID NO:31)- and WQRHGIC (SEQ ID NO:30)—Workbeads: A volume of 0.1 mL of resin was packed in a PEEK microbore column, installed on a Waters 2695 unit, and equilibrated with PBS, pH 7.4. All chromatographic buffers were filtered through a compatible 0.2 μm filter prior to use. A volume of 100 μL of solution of human polyclonal IgG at 1 mg/mL in a CHO cell culture fluid at 0.205 mg/mL CHO HCPs was injected in the column at 0.02 mL/min (RT: 5 minutes). Following injection, the resin was washed with PBS at 0.2 mL/min and, subsequently, with 100 mM NaCl in PBS at 0.2 mL/min. Elution was then conducted with […] pH 4. An acidic cleaning step was conducted in 0.1 M glycine pH 2.5 to remove any proteins still bound. The absorbance of the effluent was monitored by UV/Vis spectrophotometry at 280 nm. Fractions were collected and adjusted to neutral pH. Total protein concentration was measured by BCA assay. All collected fractions were also analyzed via SDS PAGE under reducing conditions. The gel was stained by silver staining, and the overall IgG purity in the eluted fractions was determined by densitometric analysis using ImageJ software. Finally, the feed and eluted fractions were analyzed using a CHO-specific ELISA kit to determine the log removal value (LRV) of HCPs.
The high purity of the recovered IgG using WQRHGI (SEQ ID NO:1), as calculated by densitometric analysis (100%) was confirmed by the HCP LRV value of 2.7, thus indicating WQRHGI (SEQ ID NO:1) has purification abilities similar to Protein A. This is a remarkable result. […] The collected chromatographic fractions were analyzed by SDS-PAGE (FIG. 7B, silver stained to highlight diluted CHO HCPs). The % values of IgG in the fractions (expressed as a ratio of IgG concentration over total protein (e.g., IgG+CHO HCPs)) were calculated by densitometric analysis of the lanes in the SDS gel and were as follows: Control (C), 0.00%; Load (L) 59.77%; Flowthrough (FT), 0.00%; Elution 1 (El1), 100.00%; Elution 2 (El2), 0.00%; IgG 93.30%. […]

host cell protein (HCP) = conditions: literature value; cited from earlier work
[2] = test system: human polyclonal IgG in CHO-S cell culture fluid; assay: Static purification of IgG from CHO cell culture supernatant on peptide-Toyopearl resins, SDS-PAGE densitometry; conditions: for % Purity (IgG over total proteins): lane FT (flow-through); for % Purity (IgG over total eluted proteins): lane R (pH 2.5)
Protocol: (§1) Measurement of IgG binding by peptide-based chromatographic adsorbents: For initial studies, 35 mg of MWRGWQ (SEQ ID NO:2)-Toyopearl, RHLGWF (SEQ ID NO:3)-Toyopearl, WQRHGI (SEQ ID NO:1)-Toyopearl, GWLHQR (SEQ ID NO:4)-Toyopearl, and HWRGWV (SEQ ID NO:18)-Toyopearl (control) resins were equilibrated in PBS pH 7.4, reaching a swollen volume of 0.1 mL, and subsequently incubated with 1 mg/mL IgG in 0.205 mg/mL CHO cell culture supernatant for 30 minutes. The resins were subsequently washed several times with PBS to remove non-specifically bound proteins. Elution was performed with 100 mM glycine buffer pH 2.5. Flowthrough and elution fractions were collected and analyzed by SDS PAGE under reducing conditions. The resulting gels were stained with Coomassie staining. Further, 25 mg of the adsorbents MWRGWQ (SEQ ID NO:2)-Toyopearl, NIFRGWQ (SEQ ID NO:21)-Toyopearl, MWRAWQ (SEQ ID NO:5)-Toyopearl, MWRGFQ (SEQ ID NO:7)-Toyopearl, MWRGWN (SEQ ID NO:22)-Toyopearl, (NorL) WRGWQ (SEQ ID NO:23)-Toyopearl, MGRGWQ (SEQ ID NO:24)-Toyopearl, MWRWQ (SEQ ID NO:6)-Toyopearl, MWRGGQ (SEQ ID NO:26)-Toyopearl, GWRGWQ (SEQ ID NO:8)-Toyopearl, WQRHGI (SEQ ID NO:1)-Toyopearl, WNRHGI (SEQ ID NO:12)-Toyopearl, WQRAGI (SEQ ID NO:28)-Toyopearl, WQRHAI (SEQ ID NO:11)-Toyopearl, WQRHGL (SEQ ID NO:9)-Toyopearl, FQRHGI (SEQ ID NO:29)-Toyopearl, and WQRHGV (SEQ ID NO:10)-Toyopearl resins were equilibrated in PBS pH 7.4, reaching a swollen volume of 0.1 mL, and subsequently incubated with 1 mg/mL IgG in PBS at pH 7.4 for 30 minutes. The amount of unbound IgG in the supernatant samples was quantified by Bradford assay and utilized to determine the IgG binding % by the peptide variants.
Characterization of IgG-binding peptide variants WQRHGI (SEQ ID NO:1), MWRGWQ (SEQ ID NO:2), RHLGWF (SEQ ID NO:3), and GWLHQR (SEQ ID NO:4) in competitive conditions: The four selected sequence variants were tested for their ability to purify human IgG from a CHO cell culture supernatant and found largely to mirror their in silico predictions. Even though they seemed to underperform in silico, RHLGWF (SEQ ID NO:3) and GWLHQR (SEQ ID NO:4) were tested alongside WQRHGI (SEQ ID NO:1) and MWRGWQ (SEQ ID NO:2) in these conditions in order to confirm their ability to bind IgG and examine their selectivity as predicted in silico. The feedstock was prepared by spiking human polyclonal IgG into a clarified null CHO-S cell culture fluid to obtain an IgG concentration of 1 mg/mL and a CHO HCP concentration of 0.205 mg/mL. An aliquot of 500 μL was loaded onto each peptide adsorbent in static conditions for 30 min. Following a washing step with PBS to remove loosely bound proteins, a first elution step was conducted using 0.1 M glycine buffer pH 2.5 to remove all bound proteins. Flow through fractions and pH 2.5 elution fractions were loaded neat and analyzed by SDS PAGE (FIGS. 6A-6B). The values of IgG purity in the eluted fractions were determined by densitometric analysis of the corresponding lanes on the gels, and are reported in Table 9.

[3] = test system: human polyclonal IgG in CHO-S cell culture fluid; assay: as above; conditions: Gel B, lane E (pH 4)
human IgG [4] = conditions: reference [77], cited from earlier work
IgG = conditions: optimized adsorbents, Menegatti et al. 2016; cited from earlier work
human IgG [5] = assay type: binding
Protocol: as §1
A limited library of residue-by-residue changes confirmed the importance of each residue in peptides WQRHGI (SEQ ID NO:1) and MWRGWQ (SEQ ID NO:2) in reducing the binding energy between the peptide and the IgG target. […] This was accomplished by designing and constructing an ensemble of 20 variants of peptides WQRHGI (SEQ ID NO:1) and MWRGWQ (SEQ ID NO:2). Selected residues in positions 1-6 were mutated. The peptide variants were synthesized directly on Toyopearl AF-amino-650M resin via Fmoc/tBu chemistry. The resulting adsorbents were incubated with a solution of human IgG at 2 mg/mL at a ratio of 1 mL of resin per 3.5 mL of solution for 30 min at room temperature. The residual concentration of IgG in solution was determined by Bradford concentration assay of the supernatants and utilized to calculate the amounts of bound IgG per volume of resin; Table 7 reports the % binding, defined as mg IgG bound by variant/mg IgG bound by original sequence (either WQRHGI (SEQ ID NO:1) or MWRGWQ (SEQ ID NO:2))×100%, of each sequence variant.

[6] = Solubility of free peptide in buffer (preparation for ITC); assay type: physicochemical
Protocol: MWRGWQ (SEQ ID NO:2) was unable to be examined via ITC. Peptide MWRGWQ (SEQ ID NO:2) was not soluble in pH 7.4 buffer, likely due to self-associative properties. MWRGWQ (SEQ ID NO:2) was found soluble in highly acidic buffer, but ITC results were confounded by the heat of mixing between acidic and neutral solutions. […] Attempts were made to raise the pH of buffer in which MWRGWQ (SEQ ID NO:2) was dissolved, but the peptide was seen to gel when the pH was raised above 5.
MWRGWQ's (SEQ ID NO:2) binding affinity could not be examined using ITC. […] However, when the peptide was dissolved in a lower pH solution, the heat of mixing between the different pH solutions was extremely high, and peptide-peptide or peptide-IgG binding energies upon titration became difficult to differentiation from the heat of mixing in ITC experiments.

[7] = biological target: human polyclonal IgG (human); assay: batch incubation of peptide-Toyopearl resin with human IgG, Bradford of unbound IgG; mg IgG bound relative to MWRGWQ (the reference itself)
[8] = biological target: human polyclonal IgG (human); assay: breakthrough curve, 20 mg/mL IgG in PBS on a peptide-WorkBeads column, residence time 2 min
[9] = biological target: human polyclonal IgG (human); assay: breakthrough curve, 20 mg/mL IgG in PBS on a peptide-WorkBeads column, residence time 5 min
[10] = biological target: human polyclonal IgG (human); assay: batch adsorption isotherm of IgG on peptide-WorkBeads resin, BCA of unbound IgG, Langmuir fit
[11] = biological target: human polyclonal IgG (human); assay: batch adsorption isotherm of IgG on peptide-WorkBeads resin, BCA of unbound IgG, Langmuir fit (KD(Solid))
[12] = biological target: human polyclonal IgG (human); assay: ITC at 25 C, peptide titrated into polyclonal IgG in PBS pH 7.4, independent single-site fit
[13] = biological target: human polyclonal IgG (human); assay: batch incubation of peptide-Toyopearl resin with human IgG, Bradford of unbound IgG; mg IgG bound relative to WQRHGI (the reference itself)

For “Protein A: Protein A adsorbent, industrial standard for mAb capture”, the “% Purity (IgG over total protein)” value ([1]; elution lane (pH 4)) is listed as 100.00%, the “% Purity (IgG over total protein)” value ([1]; lane FT) is listed as 55.74% and the “HCP LRV” value (host cell protein (HCP)) is listed as 2.5-3.0.

With GWLHQR the “% Purity (IgG over total proteins)” value ([2]; Gel B) was 57.02%, the “% Purity (IgG over total eluted proteins)” value ([2]; Gel B) was 0.00% and the IgG yield ([2]; competitive conditions, CHO cell culture supernatant) was “lower than expected IgG yields; also recorded: lower IgG yield”. The “% Purity (IgG over total eluted proteins)” value [3] was 100%.

In the case of HWRGWV [reference compound], the “% Purity (IgG over total proteins)” value ([2]; Gel A) is reported as 100.00%, the “% Purity (IgG over total eluted proteins)” value ([2]; Gel A) is reported as 97.81% and the “% Purity (IgG over total proteins)” value ([2]; Gel B) is reported as 45.40%. For the same molecule, the “% Purity (IgG over total eluted proteins)” value ([2]; Gel B) was 93.79%, the “DBC at 10% breakthrough” value (human IgG [4]; residence time 2 min) was 25 mg IgG/mL resin and the “DBC at 10% breakthrough” value (human IgG [4]; residence time 5 min) was 36 mg IgG/mL resin. The “HCP LRV” value (host cell protein (HCP)) was 1.6 and the binding capacity (IgG) was “up to 91.5 mg of IgG per mL of adsorbent”.

With MWRGWQ [MWRGWQ] the “% Binding (mg IgG bound by variant/mg IgG bound by original sequence × 100%)” value (human IgG [5]) was 100.00%, the solubility ([6]; highly acidic buffer / lower pH) was “soluble; also recorded: could be dissolved” and the solubility ([6]; pH 7.4 buffer / neutral pH) was “not soluble; also recorded: tended to gel”.

Work on MWRGWQ [MWRGWQ (SEQ ID NO:2)] yielded a % Binding [7] of 100%.

WQRHGIC(iodoacetyl‑activated TREN WorkBeads resin) (not fully specified) [WQRHGIC (SEQ ID NO:30)-WorkBeads] gave a DBC (dynamic binding capacity at 10% breakthrough) (mg IgG/mL resin) [8] of 33.6, a DBC (dynamic binding capacity at 10% breakthrough) (mg IgG/mL resin) [9] of 43.8 and a Qmax (mg IgG/mL resin) [10] of 52.6. It also gave a Kd [11] of 3.2 µM.

For WQRHGI [WQRHGI (SEQ ID NO:1)], the Kd [12] was 58.8 µM, the stoichiometry (N, interacting peptides per IgG) (peptides per IgG) [12] was 10 and the % Binding [13] was 100%.

MWRGWQC(iodoacetyl‑activated TREN WorkBeads resin) (not fully specified) [MWRGWQC (SEQ ID NO:31)-WorkBeads] gave a DBC (dynamic binding capacity at 10% breakthrough) (mg IgG/mL resin) [8] of 44, a DBC (dynamic binding capacity at 10% breakthrough) (mg IgG/mL resin) [9] of 55.3 and a Qmax (mg IgG/mL resin) [10] of 57.5. It also gave a Kd [11] of 8.1 µM.
